According to paper PMC5540273, “Progress towards a public chemogenomic set for protein kinases and a call for contributions” (PLoS ONE, 2017):

Target: ERK5 (Homo sapiens, UniProt Q13164)
Test: KINOMEscan competition binding
Conditions: read-out: %Inh ERK5

Chain of ERK5 (Q13164 whole entry): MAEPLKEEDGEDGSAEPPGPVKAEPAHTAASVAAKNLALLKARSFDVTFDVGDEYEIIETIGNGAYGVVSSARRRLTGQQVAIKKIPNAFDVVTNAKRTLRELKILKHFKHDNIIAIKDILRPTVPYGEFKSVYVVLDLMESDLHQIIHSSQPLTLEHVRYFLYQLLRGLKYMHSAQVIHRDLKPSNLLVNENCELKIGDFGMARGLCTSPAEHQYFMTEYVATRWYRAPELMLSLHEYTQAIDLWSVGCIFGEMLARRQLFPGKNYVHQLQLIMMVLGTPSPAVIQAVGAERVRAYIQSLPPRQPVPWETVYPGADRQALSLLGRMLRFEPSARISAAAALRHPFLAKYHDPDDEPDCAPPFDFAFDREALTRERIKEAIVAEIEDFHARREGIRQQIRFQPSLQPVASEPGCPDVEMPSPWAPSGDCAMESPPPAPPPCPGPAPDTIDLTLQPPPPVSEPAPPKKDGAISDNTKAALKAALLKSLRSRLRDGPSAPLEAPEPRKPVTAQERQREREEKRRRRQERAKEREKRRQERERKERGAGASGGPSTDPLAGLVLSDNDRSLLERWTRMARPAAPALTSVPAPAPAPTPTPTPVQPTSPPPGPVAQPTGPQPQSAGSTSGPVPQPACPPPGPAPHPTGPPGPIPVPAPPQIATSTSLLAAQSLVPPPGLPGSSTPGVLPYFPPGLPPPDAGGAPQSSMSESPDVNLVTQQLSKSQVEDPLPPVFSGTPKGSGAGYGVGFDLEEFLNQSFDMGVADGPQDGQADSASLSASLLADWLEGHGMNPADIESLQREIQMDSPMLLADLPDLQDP

Compound | inhibition at 1 µM [%]
O=c1cc(N2CCOCC2)nc2n(Cc3cccc(Cl)c3Cl)c(C3CC3)nn12 [UNC10225469A] | 0
Cn1cc(-c2cnc(N)c3c(-c4ccc5c(c4)CCN5C(=O)Cc4ccccc4)csc23)cn1 [UNC10225012A] | 15
CS(=O)(=O)Cc1ccc(Nc2nccc(-c3c(-c4cccc(NC(=O)C5CCCCC5)c4)nn4ncccc34)n2)cc1 [UNC10225159A] | 0
COc1cccc(OC)c1C(=O)Nc1cccc(-c2nn3ccccc3c2-c2ccnc(Nc3cccc(F)c3)n2)c1 [UNC10225310A] | 2
Cc1ccc(NC(=O)Nc2cccc(C(F)(F)F)c2)cc1 [UNC10225187A] | 5

Target: AKT2 (Homo sapiens, UniProt P31751)
Sequence (P31751 whole entry): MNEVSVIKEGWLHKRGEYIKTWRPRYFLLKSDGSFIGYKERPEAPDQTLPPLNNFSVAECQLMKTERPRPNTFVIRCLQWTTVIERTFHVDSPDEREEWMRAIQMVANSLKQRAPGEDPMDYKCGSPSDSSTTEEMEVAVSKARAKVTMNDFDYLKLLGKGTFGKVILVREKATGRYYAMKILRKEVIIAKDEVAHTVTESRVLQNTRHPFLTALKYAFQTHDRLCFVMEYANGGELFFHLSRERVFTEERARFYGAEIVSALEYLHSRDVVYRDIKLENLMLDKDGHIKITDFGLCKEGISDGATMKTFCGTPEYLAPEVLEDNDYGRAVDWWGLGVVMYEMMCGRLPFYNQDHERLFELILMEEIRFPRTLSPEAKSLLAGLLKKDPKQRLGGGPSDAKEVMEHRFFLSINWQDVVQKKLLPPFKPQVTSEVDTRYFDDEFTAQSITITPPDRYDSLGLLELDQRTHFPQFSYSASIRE
Test: KINOMEscan competition binding
Conditions: read-out: %Inh AKT2

Compound | inhibition at 1 µM [%]
O=c1cc(N2CCOCC2)nc2n(Cc3cccc(Cl)c3Cl)c(C3CC3)nn12 [UNC10225469A] | 0
Cn1cc(-c2cnc(N)c3c(-c4ccc5c(c4)CCN5C(=O)Cc4ccccc4)csc23)cn1 [UNC10225012A] | 0
CS(=O)(=O)Cc1ccc(Nc2nccc(-c3c(-c4cccc(NC(=O)C5CCCCC5)c4)nn4ncccc34)n2)cc1 [UNC10225159A] | 4
COc1cccc(OC)c1C(=O)Nc1cccc(-c2nn3ccccc3c2-c2ccnc(Nc3cccc(F)c3)n2)c1 [UNC10225310A] | 0
Cc1ccc(NC(=O)Nc2cccc(C(F)(F)F)c2)cc1 [UNC10225187A] | 3

Target: GRK4 (Homo sapiens, UniProt P32298)
Sequence (P32298 whole entry): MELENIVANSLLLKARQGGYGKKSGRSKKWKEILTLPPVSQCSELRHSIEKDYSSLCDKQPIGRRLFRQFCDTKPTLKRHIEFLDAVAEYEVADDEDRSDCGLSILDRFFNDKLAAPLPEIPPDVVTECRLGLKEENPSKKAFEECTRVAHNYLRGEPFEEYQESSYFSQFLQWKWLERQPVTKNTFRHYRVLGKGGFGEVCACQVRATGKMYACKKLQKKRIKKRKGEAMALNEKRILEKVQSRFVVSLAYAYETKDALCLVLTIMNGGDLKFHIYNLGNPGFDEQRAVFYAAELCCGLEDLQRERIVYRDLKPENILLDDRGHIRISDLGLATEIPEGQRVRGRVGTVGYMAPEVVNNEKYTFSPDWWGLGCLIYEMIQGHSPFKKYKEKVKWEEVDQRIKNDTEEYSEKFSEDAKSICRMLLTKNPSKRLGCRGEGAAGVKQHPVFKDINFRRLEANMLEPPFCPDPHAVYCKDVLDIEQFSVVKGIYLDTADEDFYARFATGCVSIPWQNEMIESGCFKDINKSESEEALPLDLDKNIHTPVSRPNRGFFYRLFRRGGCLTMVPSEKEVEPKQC
Test: KINOMEscan competition binding
Conditions: read-out: %Inh GRK4

Compound | inhibition at 1 µM [%]
O=c1cc(N2CCOCC2)nc2n(Cc3cccc(Cl)c3Cl)c(C3CC3)nn12 [UNC10225469A] | 0
Cn1cc(-c2cnc(N)c3c(-c4ccc5c(c4)CCN5C(=O)Cc4ccccc4)csc23)cn1 [UNC10225012A] | 7
CS(=O)(=O)Cc1ccc(Nc2nccc(-c3c(-c4cccc(NC(=O)C5CCCCC5)c4)nn4ncccc34)n2)cc1 [UNC10225159A] | 0
COc1cccc(OC)c1C(=O)Nc1cccc(-c2nn3ccccc3c2-c2ccnc(Nc3cccc(F)c3)n2)c1 [UNC10225310A] | 0
Cc1ccc(NC(=O)Nc2cccc(C(F)(F)F)c2)cc1 [UNC10225187A] | 0

Target: JAK1(JH2domain-pseudokinase) (Homo sapiens, UniProt P23458)
Sequence (P23458 578-855 limits assumed): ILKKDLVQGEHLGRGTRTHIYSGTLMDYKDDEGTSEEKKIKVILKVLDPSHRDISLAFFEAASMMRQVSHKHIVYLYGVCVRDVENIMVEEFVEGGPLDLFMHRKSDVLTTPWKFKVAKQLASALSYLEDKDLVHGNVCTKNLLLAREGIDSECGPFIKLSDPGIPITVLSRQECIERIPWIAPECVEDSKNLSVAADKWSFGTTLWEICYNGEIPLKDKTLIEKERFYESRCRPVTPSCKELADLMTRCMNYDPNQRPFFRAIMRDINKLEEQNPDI
Test: KINOMEscan competition binding
Conditions: read-out: %Inh JAK1(JH2domain-pseudokinase)

Compound | inhibition at 1 µM [%]
O=c1cc(N2CCOCC2)nc2n(Cc3cccc(Cl)c3Cl)c(C3CC3)nn12 [UNC10225469A] | 3
Cn1cc(-c2cnc(N)c3c(-c4ccc5c(c4)CCN5C(=O)Cc4ccccc4)csc23)cn1 [UNC10225012A] | 0
CS(=O)(=O)Cc1ccc(Nc2nccc(-c3c(-c4cccc(NC(=O)C5CCCCC5)c4)nn4ncccc34)n2)cc1 [UNC10225159A] | 0
COc1cccc(OC)c1C(=O)Nc1cccc(-c2nn3ccccc3c2-c2ccnc(Nc3cccc(F)c3)n2)c1 [UNC10225310A] | 4
Cc1ccc(NC(=O)Nc2cccc(C(F)(F)F)c2)cc1 [UNC10225187A] | 12

Target: T1, BRSK2 (Homo sapiens, UniProt Q8IWQ3)
T1 sequence (Q8IWQ3 1-736): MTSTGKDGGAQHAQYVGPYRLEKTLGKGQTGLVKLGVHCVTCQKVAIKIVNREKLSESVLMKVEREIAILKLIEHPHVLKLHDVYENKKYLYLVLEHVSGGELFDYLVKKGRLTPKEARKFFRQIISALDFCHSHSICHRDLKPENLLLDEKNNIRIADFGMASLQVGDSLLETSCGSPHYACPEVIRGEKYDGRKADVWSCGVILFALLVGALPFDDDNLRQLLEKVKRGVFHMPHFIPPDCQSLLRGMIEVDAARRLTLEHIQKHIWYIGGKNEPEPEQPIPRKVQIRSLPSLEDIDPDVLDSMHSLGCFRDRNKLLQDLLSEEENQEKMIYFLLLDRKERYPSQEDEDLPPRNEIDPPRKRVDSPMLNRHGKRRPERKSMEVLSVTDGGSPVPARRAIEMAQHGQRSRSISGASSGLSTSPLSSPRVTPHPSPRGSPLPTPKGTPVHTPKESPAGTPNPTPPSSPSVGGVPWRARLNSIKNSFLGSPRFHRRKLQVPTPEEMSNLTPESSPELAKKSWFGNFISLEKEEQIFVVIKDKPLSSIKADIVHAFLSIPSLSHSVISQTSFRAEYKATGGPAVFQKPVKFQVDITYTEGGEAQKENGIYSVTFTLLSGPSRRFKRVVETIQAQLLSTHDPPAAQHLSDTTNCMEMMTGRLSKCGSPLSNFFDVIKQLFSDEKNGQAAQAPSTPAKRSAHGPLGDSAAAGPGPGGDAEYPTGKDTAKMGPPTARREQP
Test: KINOMEscan competition binding
Conditions: read-out: %Inh BRSK2

Compound | inhibition at 1 µM [%]
O=c1cc(N2CCOCC2)nc2n(Cc3cccc(Cl)c3Cl)c(C3CC3)nn12 [UNC10225469A] | 0
Cn1cc(-c2cnc(N)c3c(-c4ccc5c(c4)CCN5C(=O)Cc4ccccc4)csc23)cn1 [UNC10225012A] | 7
CS(=O)(=O)Cc1ccc(Nc2nccc(-c3c(-c4cccc(NC(=O)C5CCCCC5)c4)nn4ncccc34)n2)cc1 [UNC10225159A] | 0
COc1cccc(OC)c1C(=O)Nc1cccc(-c2nn3ccccc3c2-c2ccnc(Nc3cccc(F)c3)n2)c1 [UNC10225310A] | 16
Cc1ccc(NC(=O)Nc2cccc(C(F)(F)F)c2)cc1 [UNC10225187A] | 0

Target: JNK3 (Homo sapiens, UniProt P53779)
Sequence (P53779 whole entry): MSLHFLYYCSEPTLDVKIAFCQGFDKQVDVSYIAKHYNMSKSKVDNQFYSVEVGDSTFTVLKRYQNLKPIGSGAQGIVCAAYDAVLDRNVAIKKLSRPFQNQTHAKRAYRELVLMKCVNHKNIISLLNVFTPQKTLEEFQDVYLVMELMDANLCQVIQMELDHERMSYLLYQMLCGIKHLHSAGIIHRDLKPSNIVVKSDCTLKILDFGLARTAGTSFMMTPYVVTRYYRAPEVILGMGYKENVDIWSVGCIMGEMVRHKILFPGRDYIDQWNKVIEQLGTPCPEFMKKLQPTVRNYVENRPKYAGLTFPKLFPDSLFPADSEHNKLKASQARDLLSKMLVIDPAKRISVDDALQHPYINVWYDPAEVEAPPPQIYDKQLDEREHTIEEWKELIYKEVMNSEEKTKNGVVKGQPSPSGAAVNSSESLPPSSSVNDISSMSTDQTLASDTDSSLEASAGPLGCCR
Test: KINOMEscan competition binding
Conditions: read-out: %Inh JNK3

Compound | inhibition at 1 µM [%]
O=c1cc(N2CCOCC2)nc2n(Cc3cccc(Cl)c3Cl)c(C3CC3)nn12 [UNC10225469A] | 0
Cn1cc(-c2cnc(N)c3c(-c4ccc5c(c4)CCN5C(=O)Cc4ccccc4)csc23)cn1 [UNC10225012A] | 0
CS(=O)(=O)Cc1ccc(Nc2nccc(-c3c(-c4cccc(NC(=O)C5CCCCC5)c4)nn4ncccc34)n2)cc1 [UNC10225159A] | 36
COc1cccc(OC)c1C(=O)Nc1cccc(-c2nn3ccccc3c2-c2ccnc(Nc3cccc(F)c3)n2)c1 [UNC10225310A] | 0
Cc1ccc(NC(=O)Nc2cccc(C(F)(F)F)c2)cc1 [UNC10225187A] | 46

Target: T2, LATS1 (Homo sapiens, UniProt O95835)
T2 sequence (O95835 1-1130): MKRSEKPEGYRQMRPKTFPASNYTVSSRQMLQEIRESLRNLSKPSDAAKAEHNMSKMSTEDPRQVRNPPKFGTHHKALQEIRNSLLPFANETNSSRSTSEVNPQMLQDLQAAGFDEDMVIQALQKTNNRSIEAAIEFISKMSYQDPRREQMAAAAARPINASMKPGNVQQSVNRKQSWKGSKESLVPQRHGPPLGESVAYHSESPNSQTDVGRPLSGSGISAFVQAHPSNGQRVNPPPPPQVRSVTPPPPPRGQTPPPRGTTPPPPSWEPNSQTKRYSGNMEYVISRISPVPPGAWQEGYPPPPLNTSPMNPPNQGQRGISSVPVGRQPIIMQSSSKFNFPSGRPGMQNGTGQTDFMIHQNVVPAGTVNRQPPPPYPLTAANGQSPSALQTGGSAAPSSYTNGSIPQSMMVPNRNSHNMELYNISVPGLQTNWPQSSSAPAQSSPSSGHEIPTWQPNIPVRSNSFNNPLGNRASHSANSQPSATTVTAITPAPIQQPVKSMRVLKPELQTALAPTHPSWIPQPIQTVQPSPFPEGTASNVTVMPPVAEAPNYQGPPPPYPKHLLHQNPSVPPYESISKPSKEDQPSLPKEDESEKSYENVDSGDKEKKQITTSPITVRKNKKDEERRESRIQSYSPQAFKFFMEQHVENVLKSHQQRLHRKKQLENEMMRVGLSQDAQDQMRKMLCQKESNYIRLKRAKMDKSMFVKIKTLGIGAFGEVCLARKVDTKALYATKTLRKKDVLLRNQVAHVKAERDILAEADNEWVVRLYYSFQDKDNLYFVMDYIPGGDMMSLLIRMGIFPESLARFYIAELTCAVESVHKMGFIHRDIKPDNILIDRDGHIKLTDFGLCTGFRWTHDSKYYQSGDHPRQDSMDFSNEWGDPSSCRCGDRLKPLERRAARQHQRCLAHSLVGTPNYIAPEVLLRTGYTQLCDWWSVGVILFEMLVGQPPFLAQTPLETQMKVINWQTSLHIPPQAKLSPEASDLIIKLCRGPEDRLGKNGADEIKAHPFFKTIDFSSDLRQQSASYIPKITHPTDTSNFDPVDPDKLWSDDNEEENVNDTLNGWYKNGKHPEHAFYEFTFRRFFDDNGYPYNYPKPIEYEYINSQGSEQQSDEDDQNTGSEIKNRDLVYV
Test: KINOMEscan competition binding
Conditions: read-out: %Inh LATS1

Compound | inhibition at 1 µM [%]
O=c1cc(N2CCOCC2)nc2n(Cc3cccc(Cl)c3Cl)c(C3CC3)nn12 [UNC10225469A] | 0
Cn1cc(-c2cnc(N)c3c(-c4ccc5c(c4)CCN5C(=O)Cc4ccccc4)csc23)cn1 [UNC10225012A] | 1
CS(=O)(=O)Cc1ccc(Nc2nccc(-c3c(-c4cccc(NC(=O)C5CCCCC5)c4)nn4ncccc34)n2)cc1 [UNC10225159A] | 0
COc1cccc(OC)c1C(=O)Nc1cccc(-c2nn3ccccc3c2-c2ccnc(Nc3cccc(F)c3)n2)c1 [UNC10225310A] | 6
Cc1ccc(NC(=O)Nc2cccc(C(F)(F)F)c2)cc1 [UNC10225187A] | 0

Target: BRK (Homo sapiens, UniProt Q13882)
Sequence (Q13882 whole entry): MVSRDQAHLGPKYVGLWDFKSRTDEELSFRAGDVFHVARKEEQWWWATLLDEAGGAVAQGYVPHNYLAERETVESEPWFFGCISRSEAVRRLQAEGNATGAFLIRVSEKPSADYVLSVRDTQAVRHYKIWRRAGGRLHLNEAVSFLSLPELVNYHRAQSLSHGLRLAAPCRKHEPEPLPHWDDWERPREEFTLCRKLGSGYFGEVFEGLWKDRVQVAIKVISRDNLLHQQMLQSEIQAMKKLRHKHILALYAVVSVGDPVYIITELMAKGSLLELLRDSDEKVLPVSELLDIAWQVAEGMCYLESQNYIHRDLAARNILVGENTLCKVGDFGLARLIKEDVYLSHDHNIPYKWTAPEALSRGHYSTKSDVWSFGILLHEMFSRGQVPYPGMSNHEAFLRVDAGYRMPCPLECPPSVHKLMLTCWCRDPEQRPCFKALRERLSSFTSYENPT
Test: KINOMEscan competition binding
Conditions: read-out: %Inh BRK

Compound | inhibition at 1 µM [%]
O=c1cc(N2CCOCC2)nc2n(Cc3cccc(Cl)c3Cl)c(C3CC3)nn12 [UNC10225469A] | 0
Cn1cc(-c2cnc(N)c3c(-c4ccc5c(c4)CCN5C(=O)Cc4ccccc4)csc23)cn1 [UNC10225012A] | 92.2
CS(=O)(=O)Cc1ccc(Nc2nccc(-c3c(-c4cccc(NC(=O)C5CCCCC5)c4)nn4ncccc34)n2)cc1 [UNC10225159A] | 2
COc1cccc(OC)c1C(=O)Nc1cccc(-c2nn3ccccc3c2-c2ccnc(Nc3cccc(F)c3)n2)c1 [UNC10225310A] | 19
Cc1ccc(NC(=O)Nc2cccc(C(F)(F)F)c2)cc1 [UNC10225187A] | 0

Target: T3, AURKC (Homo sapiens, UniProt Q9UQB9)
T3 sequence (Q9UQB9 1-309): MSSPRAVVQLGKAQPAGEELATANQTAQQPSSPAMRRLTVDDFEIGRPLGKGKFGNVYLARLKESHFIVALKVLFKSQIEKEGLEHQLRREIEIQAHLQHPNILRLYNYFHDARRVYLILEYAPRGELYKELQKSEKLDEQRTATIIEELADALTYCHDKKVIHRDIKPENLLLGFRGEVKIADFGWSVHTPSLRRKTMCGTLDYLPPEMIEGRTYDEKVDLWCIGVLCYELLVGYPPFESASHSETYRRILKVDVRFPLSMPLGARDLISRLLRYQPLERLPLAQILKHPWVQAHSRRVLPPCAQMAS
Test: KINOMEscan competition binding
Conditions: read-out: %Inh AURKC

Compound | inhibition at 1 µM [%]
O=c1cc(N2CCOCC2)nc2n(Cc3cccc(Cl)c3Cl)c(C3CC3)nn12 [UNC10225469A] | 0
Cn1cc(-c2cnc(N)c3c(-c4ccc5c(c4)CCN5C(=O)Cc4ccccc4)csc23)cn1 [UNC10225012A] | 92.2
CS(=O)(=O)Cc1ccc(Nc2nccc(-c3c(-c4cccc(NC(=O)C5CCCCC5)c4)nn4ncccc34)n2)cc1 [UNC10225159A] | 49
COc1cccc(OC)c1C(=O)Nc1cccc(-c2nn3ccccc3c2-c2ccnc(Nc3cccc(F)c3)n2)c1 [UNC10225310A] | 70
Cc1ccc(NC(=O)Nc2cccc(C(F)(F)F)c2)cc1 [UNC10225187A] | 19

Target: JNK2 (Homo sapiens, UniProt P45984)
Sequence (P45984 whole entry): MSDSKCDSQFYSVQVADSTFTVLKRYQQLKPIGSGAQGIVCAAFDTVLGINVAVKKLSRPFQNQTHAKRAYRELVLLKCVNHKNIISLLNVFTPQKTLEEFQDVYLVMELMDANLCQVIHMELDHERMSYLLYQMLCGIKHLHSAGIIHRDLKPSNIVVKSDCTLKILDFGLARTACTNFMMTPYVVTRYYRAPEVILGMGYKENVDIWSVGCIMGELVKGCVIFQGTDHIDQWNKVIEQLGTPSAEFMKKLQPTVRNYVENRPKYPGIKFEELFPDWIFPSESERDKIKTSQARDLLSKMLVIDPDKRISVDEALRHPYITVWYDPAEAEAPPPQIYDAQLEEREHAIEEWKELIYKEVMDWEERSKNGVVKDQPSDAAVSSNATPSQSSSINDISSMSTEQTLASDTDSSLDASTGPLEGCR
Test: KINOMEscan competition binding
Conditions: read-out: %Inh JNK2

Compound | inhibition at 1 µM [%]
O=c1cc(N2CCOCC2)nc2n(Cc3cccc(Cl)c3Cl)c(C3CC3)nn12 [UNC10225469A] | 0
Cn1cc(-c2cnc(N)c3c(-c4ccc5c(c4)CCN5C(=O)Cc4ccccc4)csc23)cn1 [UNC10225012A] | 0
CS(=O)(=O)Cc1ccc(Nc2nccc(-c3c(-c4cccc(NC(=O)C5CCCCC5)c4)nn4ncccc34)n2)cc1 [UNC10225159A] | 49
COc1cccc(OC)c1C(=O)Nc1cccc(-c2nn3ccccc3c2-c2ccnc(Nc3cccc(F)c3)n2)c1 [UNC10225310A] | 0
Cc1ccc(NC(=O)Nc2cccc(C(F)(F)F)c2)cc1 [UNC10225187A] | 26

Target: FES (Homo sapiens, UniProt P07332)
Sequence (P07332 whole entry): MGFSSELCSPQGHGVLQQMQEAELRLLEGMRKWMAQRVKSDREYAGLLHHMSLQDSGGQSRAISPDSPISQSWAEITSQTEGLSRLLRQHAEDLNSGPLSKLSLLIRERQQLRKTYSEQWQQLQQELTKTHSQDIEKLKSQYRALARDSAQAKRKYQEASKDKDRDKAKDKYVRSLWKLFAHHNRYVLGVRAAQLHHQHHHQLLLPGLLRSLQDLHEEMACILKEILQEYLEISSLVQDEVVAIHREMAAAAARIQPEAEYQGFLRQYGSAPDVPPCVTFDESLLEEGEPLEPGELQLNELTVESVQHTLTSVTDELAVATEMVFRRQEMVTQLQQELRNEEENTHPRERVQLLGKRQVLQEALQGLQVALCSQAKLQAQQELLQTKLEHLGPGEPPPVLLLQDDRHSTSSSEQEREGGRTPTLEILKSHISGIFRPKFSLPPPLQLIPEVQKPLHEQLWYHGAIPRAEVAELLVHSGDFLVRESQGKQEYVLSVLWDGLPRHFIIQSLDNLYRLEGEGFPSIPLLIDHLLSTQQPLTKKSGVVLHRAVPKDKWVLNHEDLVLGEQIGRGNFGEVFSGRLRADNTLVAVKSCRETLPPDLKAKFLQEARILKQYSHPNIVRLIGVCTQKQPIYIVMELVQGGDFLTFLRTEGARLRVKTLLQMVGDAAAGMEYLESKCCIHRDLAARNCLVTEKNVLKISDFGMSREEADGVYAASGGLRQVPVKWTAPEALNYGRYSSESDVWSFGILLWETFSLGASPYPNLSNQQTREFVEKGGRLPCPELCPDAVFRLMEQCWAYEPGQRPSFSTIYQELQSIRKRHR
Test: KINOMEscan competition binding
Conditions: read-out: %Inh FES

Compound | inhibition at 1 µM [%]
O=c1cc(N2CCOCC2)nc2n(Cc3cccc(Cl)c3Cl)c(C3CC3)nn12 [UNC10225469A] | 15
Cn1cc(-c2cnc(N)c3c(-c4ccc5c(c4)CCN5C(=O)Cc4ccccc4)csc23)cn1 [UNC10225012A] | 14
CS(=O)(=O)Cc1ccc(Nc2nccc(-c3c(-c4cccc(NC(=O)C5CCCCC5)c4)nn4ncccc34)n2)cc1 [UNC10225159A] | 0
COc1cccc(OC)c1C(=O)Nc1cccc(-c2nn3ccccc3c2-c2ccnc(Nc3cccc(F)c3)n2)c1 [UNC10225310A] | 20
Cc1ccc(NC(=O)Nc2cccc(C(F)(F)F)c2)cc1 [UNC10225187A] | 0

Target: CDK2 (Homo sapiens, UniProt P24941)
Test: KINOMEscan competition binding
Conditions: read-out: %Inh CDK2

Compound | inhibition at 1 µM [%]
O=c1cc(N2CCOCC2)nc2n(Cc3cccc(Cl)c3Cl)c(C3CC3)nn12 [UNC10225469A] | 0
Cn1cc(-c2cnc(N)c3c(-c4ccc5c(c4)CCN5C(=O)Cc4ccccc4)csc23)cn1 [UNC10225012A] | 0
CS(=O)(=O)Cc1ccc(Nc2nccc(-c3c(-c4cccc(NC(=O)C5CCCCC5)c4)nn4ncccc34)n2)cc1 [UNC10225159A] | 0
COc1cccc(OC)c1C(=O)Nc1cccc(-c2nn3ccccc3c2-c2ccnc(Nc3cccc(F)c3)n2)c1 [UNC10225310A] | 0
Cc1ccc(NC(=O)Nc2cccc(C(F)(F)F)c2)cc1 [UNC10225187A] | 0
